Assay results reported in US20260266848A1, “COMPOSITIONS AND METHODS FOR DIAGNOSING AND TREATING DYSTONIA” (Duke University, priority 2023, published 2026).

Tested on: WT MEF EVs
Assay: Quantitative LC-MS/MS proteomics of EVs from ISRIB-treated WT MEF cultures
Type: cell-based, mouse

O=C(COc1ccc(Cl)cc1)NC1CCC(NC(=O)COc2ccc(Cl)cc2)CC1 (centres unmarked) [ISRIB, reference compound]
Hnrnpc (HNRNPC) EV abundance Log2_FC (WT+ISRIB/WT, 50 nM, 24 h): 1.478 | Ipo9 (IPO9) EV abundance Cohen's d (WT+ISRIB/WT, 50 nM, 24 h): −0.4661 | Ipo9 (IPO9) EV abundance Log2_FC (WT+ISRIB/WT, 50 nM, 24 h): −0.5386 | Jam3 (JAM3) EV abundance Cohen's d (WT+ISRIB/WT, 50 nM, 24 h): −0.3267 | Jam3 (JAM3) EV abundance Log2_FC (WT+ISRIB/WT, 50 nM, 24 h): 0.373 | Lipg (LIPG) EV abundance Cohen's d (WT+ISRIB/WT, 50 nM, 24 h): 0.7395 | Lipg (LIPG) EV abundance Log2_FC (WT+ISRIB/WT, 50 nM, 24 h): −0.3639 | Lrrc59 (LRRC59) EV abundance Cohen's d (WT+ISRIB/WT, 50 nM, 24 h): −0.6884 | Lrrc59 (LRRC59) EV abundance Log2_FC (WT+ISRIB/WT, 50 nM, 24 h): 0.3431 | Mapk3 (MAPK3) EV abundance Cohen's d (WT+ISRIB/WT, 50 nM, 24 h): −0.8739 | Mapk3 (MAPK3) EV abundance Log2_FC (WT+ISRIB/WT, 50 nM, 24 h): −0.163 | Mars (MARS1) EV abundance Cohen's d (WT+ISRIB/WT, 50 nM, 24 h): 0.05955 | Mars (MARS1) EV abundance Log2_FC (WT+ISRIB/WT, 50 nM, 24 h): −0.3717 | Mrc2 (MRC2) EV abundance Cohen's d (WT+ISRIB/WT, 50 nM, 24 h): 0.2117 | Mrc2 (MRC2) EV abundance Log2_FC (WT+ISRIB/WT, 50 nM, 24 h): −0.2942 | Myh9 (MYH9) EV abundance Cohen's d (WT+ISRIB/WT, 50 nM, 24 h): −0.02365 | Myh9 (MYH9) EV abundance Log2_FC (WT+ISRIB/WT, 50 nM, 24 h): 0.05232 | Ndnf (NDNF) EV abundance Cohen's d (WT+ISRIB/WT, 50 nM, 24 h): 1.071 | Ndnf (NDNF) EV abundance Log2_FC (WT+ISRIB/WT, 50 nM, 24 h): −0.1375 | Pcmt1 (PCMT1) EV abundance Cohen's d (WT+ISRIB/WT, 50 nM, 24 h): −0.8553 | Pcmt1 (PCMT1) EV abundance Log2_FC (WT+ISRIB/WT, 50 nM, 24 h): −0.06624 | Pi4ka (PI4KA) EV abundance Cohen's d (WT+ISRIB/WT, 50 nM, 24 h): −0.4893 | Pi4ka (PI4KA) EV abundance Log2_FC (WT+ISRIB/WT, 50 nM, 24 h): 0.3826 | Pitpnb (PITPNB) EV abundance Cohen's d (WT+ISRIB/WT, 50 nM, 24 h): −1.114 | Pitpnb (PITPNB) EV abundance Log2_FC (WT+ISRIB/WT, 50 nM, 24 h): 1.461 | Prpsap2 (PRPSAP2) EV abundance Cohen's d (WT+ISRIB/WT, 50 nM, 24 h): 0.2158 | Prpsap2 (PRPSAP2) EV abundance Log2_FC (WT+ISRIB/WT, 50 nM, 24 h): −0.6725 | Psmc5 (PSMC5) EV abundance Cohen's d (WT+ISRIB/WT, 50 nM, 24 h): 0.4267 | Psmc5 (PSMC5) EV abundance Log2_FC (WT+ISRIB/WT, 50 nM, 24 h): −0.3622 | Psmd12 (PSMD12) EV abundance Cohen's d (WT+ISRIB/WT, 50 nM, 24 h): 0.00373 | Psmd12 (PSMD12) EV abundance Log2_FC (WT+ISRIB/WT, 50 nM, 24 h): −0.3805 | Psme4 (PSME4) EV abundance Cohen's d (WT+ISRIB/WT, 50 nM, 24 h): −0.8162 | Psme4 (PSME4) EV abundance Log2_FC (WT+ISRIB/WT, 50 nM, 24 h): −0.7974 | Ptma (PTMA) EV abundance Cohen's d (WT+ISRIB/WT, 50 nM, 24 h): 0.6355 | Ptma (PTMA) EV abundance Log2_FC (WT+ISRIB/WT, 50 nM, 24 h): 2.638 | Rap2b (RAP2B) EV abundance Cohen's d (WT+ISRIB/WT, 50 nM, 24 h): 0.3788 | Rap2b (RAP2B) EV abundance Log2_FC (WT+ISRIB/WT, 50 nM, 24 h): −0.1245 | Rbm3 (RBM3) EV abundance Cohen's d (WT+ISRIB/WT, 50 nM, 24 h): −0.3159 | Rbm3 (RBM3) EV abundance Log2_FC (WT+ISRIB/WT, 50 nM, 24 h): 0.2028 | Rhoa (RHOA) EV abundance Cohen's d (WT+ISRIB/WT, 50 nM, 24 h): −1.25 | Rhoa (RHOA) EV abundance Log2_FC (WT+ISRIB/WT, 50 nM, 24 h): −0.00598 | Rpl10 (RPL10) EV abundance Cohen's d (WT+ISRIB/WT, 50 nM, 24 h): −0.35 | Rpl10 (RPL10) EV abundance Log2_FC (WT+ISRIB/WT, 50 nM, 24 h): 0.00077 | Rpl13a (RPL13A) EV abundance Cohen's d (WT+ISRIB/WT, 50 nM, 24 h): 0.3123 | Rpl13a (RPL13A) EV abundance Log2_FC (WT+ISRIB/WT, 50 nM, 24 h): 0.04217 | Rps13 (RPS13) EV abundance Cohen's d (WT+ISRIB/WT, 50 nM, 24 h): −0.2269 | Rps13 (RPS13) EV abundance Log2_FC (WT+ISRIB/WT, 50 nM, 24 h): 0.2809 | Sec31a (SEC31A) EV abundance Cohen's d (WT+ISRIB/WT, 50 nM, 24 h): −0.3764 | Sec31a (SEC31A) EV abundance Log2_FC (WT+ISRIB/WT, 50 nM, 24 h): −0.2838 | Slc2a1 (SLC2A1) EV abundance Cohen's d (WT+ISRIB/WT, 50 nM, 24 h): −0.34 | Slc2a1 (SLC2A1) EV abundance Log2_FC (WT+ISRIB/WT, 50 nM, 24 h): 0.08012 | Stom (STOM) EV abundance Cohen's d (WT+ISRIB/WT, 50 nM, 24 h): −0.7279 | Stom (STOM) EV abundance Log2_FC (WT+ISRIB/WT, 50 nM, 24 h): 0.1135 | Tardbp (TARDBP) EV abundance Cohen's d (WT+ISRIB/WT, 50 nM, 24 h): −0.3087 | Tardbp (TARDBP) EV abundance Log2_FC (WT+ISRIB/WT, 50 nM, 24 h): −0.06285 | Tgfb2 (TGFB2) EV abundance Cohen's d (WT+ISRIB/WT, 50 nM, 24 h): 0.6984 | Tgfb2 (TGFB2) EV abundance Log2_FC (WT+ISRIB/WT, 50 nM, 24 h): −0.319 | Tln1 (TLN1) EV abundance Cohen's d (WT+ISRIB/WT, 50 nM, 24 h): −0.39 | Tln1 (TLN1) EV abundance Log2_FC (WT+ISRIB/WT, 50 nM, 24 h): −0.05074 | Tln2 (TLN2) EV abundance Cohen's d (WT+ISRIB/WT, 50 nM, 24 h): −0.7484 | Tln2 (TLN2) EV abundance Log2_FC (WT+ISRIB/WT, 50 nM, 24 h): −0.02524 | Tubb1 (TUBB1) EV abundance Cohen's d (WT+ISRIB/WT, 50 nM, 24 h): 0.3005 | Tubb1 (TUBB1) EV abundance Log2_FC (WT+ISRIB/WT, 50 nM, 24 h): 0.1945 | Usp7 (USP7) EV abundance Cohen's d (WT+ISRIB/WT, 50 nM, 24 h): −0.3328 | Usp7 (USP7) EV abundance Log2_FC (WT+ISRIB/WT, 50 nM, 24 h): −0.8347 | Wdr26 (WDR26) EV abundance Cohen's d (WT+ISRIB/WT, 50 nM, 24 h): −0.2688 | Wdr26 (WDR26) EV abundance Log2_FC (WT+ISRIB/WT, 50 nM, 24 h): −0.05756 | Zyx (ZYX) EV abundance Cohen's d (WT+ISRIB/WT, 50 nM, 24 h): −0.131 | Zyx (ZYX) EV abundance Log2_FC (WT+ISRIB/WT, 50 nM, 24 h): 0.1801 | Pearson r between DYT genotype effects and ISRIB effects (entire proteome): 0.37 | Pearson r between DYT genotype effects and ISRIB effects (genotype-disrupted proteins): 0.40
